The results in this text go back to patent US6495591B1, “Fungal efflux pump inhibitors” (Essential Therapeutics, Inc., priority 1997, dated 2002).

In brackets after ≈: the same amount, converted by molar mass.

What all share (test): microbe, parasite or virus in culture
What all share (type): cell-based

Experiment [1] deals with S. cerevisiae YEM-3 (no efflux pump introduced). The conditions noted are these: Saccharomyces cerevisiae, read-out: MIC Flu alone.
The test system of experiment [2] is S. cerevisiae YEM-37 (CDR2 introduced).
In experiment [3] the test system is S. cerevisiae YEM-39 (CgCDR introduced).
The subject of experiment [4] is S. cerevisiae YEM-40 (CgCDR, MF, introduced).
For experiment [5], the system named is S. cerevisiae YEM-38 (FLU1 introduced).
The test system of experiment [6] is C. albicans YEM-11 (BEN overexpressor).
Experiment [7] has as its system C. albicans YEM-13 (BEN overexpressor).
Experiment [8] deals with C. albicans YEM-15 (CDR1 and CDR2 overexpressor).
The test system of experiment [9] is C. albicans YEM-5 (CDR1 and CDR2 overexpressor).
Experiment [10] relates to C. albicans YEM-15 (CDR1 & CDR2 overexpressor).
Experiment [11] relates to C. glabrata YEM-19 (CgCDR overexpressor).
Experiment [12] concerns S. cerevisiae YEM-1 (CDR1 introduced). The conditions noted are these: YEM-1, CDR1; milbemycin β1 […].
The test system of experiment [13] is S. cerevisiae YEM-2 (BEN introduced). The conditions noted are these: YEM-2, BEN; milbemycin β1 […].
The mark [14] stands for this setting: Saccharomyces cerevisiae, read-out: MIC Flu alone.
Where [15] appears, read: Candida albicans, read-out: MIC Flu alone.

Consider `OC(Cn1cncn1)(Cn1cncn1)c1ccc(F)cc1F` [Fluconazole, fluconazole, reference compound], for which the MIC in [1] came to 0.25 µg/mL (≈ 0.816 µM); in experiment [2] (setting [14]) it was 2 µg/mL (≈ 6.53 µM); in experiment [3] (setting [14]), 32 µg/mL (≈ 104 µM); in [4] (setting [14]) it was 16 µg/mL (≈ 52.2 µM); in [5] (setting [14]), 4 µg/mL (≈ 13.1 µM); in experiment [6] (setting [15]), 32 µg/mL (≈ 104 µM). Moreover, the MIC in experiment [7] (setting [15]) was 32 µg/mL (≈ 104 µM); in experiment [8] (setting [15]), 128 µg/mL (≈ 418 µM); in experiment [9] (setting [15]), over 128 µg/mL; in [10] (setting [15]) it was 128 µg/mL (≈ 418 µM); in experiment [11] (Nakaseomyces glabratus, read-out: MIC Flu alone), over 128 µg/mL.

Regarding Milbemycin oxime [Compound 2], the “MIC of fluconazole, Flu + McOxm (2.5 μg/ml)” value in experiment [10] worked out at 0.25 µg/mL; in [11], 128 µg/mL.

Consider `CO[C@H]1C[C@@]2(O)/C(CO)=C/C=C/[C@H](C)C/C(C)=C/C[C@@H]3C[C@@H](C[C@]4(CC[C@H](C)[C@@H](C)O4)O3)OC(=O)[C@@H]2C=C1C` [Compound 6, Milbemycin β1], for which the MIC of fluconazole, Flu + Mb ([…]) was found to be 0.25 µg/mL in experiment [12]; 0.25 µg/mL in [2] (YEM-37, CDR2, milbemycin β1 […]); 1 µg/mL in experiment [3] (YEM-39, CgCDR, milbemycin β1 […]); 128 µg/mL in experiment [13]; 16 µg/mL in experiment [4] (YEM-40, CgCDR (MF), milbemycin β1 […]); 4 µg/mL in experiment [5] (YEM-38, FLU1, milbemycin β1 […]). The “MIC of fluconazole, Flu + Mb (2.5 μg/ml)” value came out at 32 µg/mL in experiment [6] (YEM-11, milbemycin β1 2.5 μg/ml); 32 µg/mL in [7] (YEM-13, milbemycin β1 2.5 μg/ml); 1 µg/mL in experiment [8] (YEM-15, milbemycin β1 2.5 μg/ml); 8 µg/mL in [9] (YEM-5, milbemycin β1 2.5 μg/ml).
